The source of these data is US20150141460A1, “Anti-inflammatory Compositions” (Cambridge Enterprise Limited, priority 2007, published 2015).

Series [1] in a line: Identification of the primary metabolites in pooled rat urine by LC-MS-MS. The format is in vivo. Particulars: single oral dose 3 mg/kg in 1% CMC, pooled urine over 24 hrs, qualitative. How it is done:
(§1) Urine was collected from rats exposed to a single oral dose (3 mg/kg in 1% CMC) of each compound over a 24 hour period in metabolic cages. The pooled urine sample was then subjected to full scan mass spectral analysis, using the same LC-MS conditions as described in example 1 above. Further MS-MS analysis of the product ions was then performed, and likely fragmentations/re-arrangements assigned from the publicly available Metabolite ID database.
For the major metabolites, the assigned structures were confirmed by synthesis of authentic samples, using methods well known in the art, which were subject to LC-MS-MS analysis under the same conditions as the urine samples.
Note that metabolite ID studies provide only qualitative estimates of the relative amounts of the different metabolites present, and separately validated assays with appropriate internal standards would be required to quantitate each metabolite species.

Series [2] is described as follows: Pharmacokinetics following a single dose in rat (1 mg/kg iv, 3 mg/kg oral), LC-MS/MS, one-compartment model. Type of series: in vivo. As to conditions: for bioavailability / clearance / Vd / half-life: plasma; for bioavailability: 3 mg/kg oral in 1% CMC vs 1 mg/kg iv, one-compartment model, read-out: F (%) oral bioavailability; for clearance / Vd / half-life: iv, 1 mg/kg; for Vd: read-out: Vss (L/kg) volume of distribution; for AUC(0-t): blood, single oral dose 3 mg/kg in 1% CMC, Tables 7-9, read-out: Exposure (min · ng/ml), oral exposure AUC 0-t (converted). The procedure: Compounds were administered as a single dose (either 1 mg/kg bodyweight in 5% DMSO via the intravenous route or 3 mg/kg in 1% carboxymethylcellulose via the oral route) to three adult rats (using different rats for each compound and each route of administration).
Blood was then sampled at various time points (including just prior to dose administration) out to 24 hrs post dose, and the level of the various compounds was assessed using a validated LC-MS/MS assay. Briefly, 3-5 μl of the deproteinised sample was applied to a Waters Atlantis (C18 20×2.1 mm, 3 μm bead size) reverse phase chromatography column equilibrated in 0.1% formic acid in 95:5 water:actetonitrile. Over 3.5 minutes bound material was gradient eluted reaching 0.1% formic acid in 5:95 water:acetonitrile, followed by a step gradient back to 0.1% formic acid in 95:5 water:acetonitrile. The column eluent was then directed to an Applied Biosystems API 4000/3200 QTrap MS/MS mass spectrometer, with a TurboIonspray™ ion source operating in positive ion mode. The interface temperature was set at 650° C., with a 40 ms dwell time for each MRM transition, monitoring the following ions:
The internal standard in each determination was the related compound (S)-3-(2′,2′-dimethyl-propanoylamino)-caprolactam, which was spiked into the sample prior to deproteinization. The lower limit of quantitation (LLOQ) for this assay was 2.4 ng/ml for each compound except (I′), where it was 38.1 ng/ml.
Following LC-MS/MS analysis of each collected sample, the pharmacokinetic disposition of the compound was modelled using Kinetica software, a well known software package for such applications.
Compounds (VI) and (VII) were subject to pharmacokinetic analysis in rat using exactly the same protocols previous applied for compounds (I) through (V) in example 1.
We therefore subjected (VIII) to pharmacokinetic analysis in rat using exactly the same protocols previous applied for compounds (I′) through (VII) in examples 1 and 7.
The isolated (R)-enantiomer of (I) was therefore synthesised (exactly as described herein for the isolated (S)-enantiomer, but replacing the (S)-ornithine starting material with commercially available (R)-ornithine of high stereochemical purity), and the PK properties of this agent, in rat, was determined using the identical methodology described above (see Examples 1, 7 and 8).

The nature of series [3]: Distribution of unchanged compound into tissues and urine 24 hrs after a single dose in rat. Type of series: in vivo. The procedure:
as §1
To provide a quantitative estimate of the degree of metabolism suffered by each of the compounds tested, the amount of unchanged parent compound in urine was measured using the same validated LC-MS assay described in example 1, using (S)-3-(2′,2′-dimethylpropanoylamino)-caprolactam as an internal standard. In addition, the level of compounds in various target tissues was also determined.

The nature of series [4]: Stability in serum in vitro. The format is in vitro ADME. As to conditions: human serum; 37° C. The source says: As an approach to identifying such stable analogs, various derivatives of (S)-3-(undec-10-enoyl)-aminoglutarimide have been tested for their stability in serum.
Series [5] can be described thus: Solubility as observed (water, dosing vehicle). The format is physicochemical. Particulars: 5% DMSO in saline.
The test system of series [6] is LPS-induced TNF-α production. In words: Sub-lethal LPS-induced endotoxemia in mice, serum TNF-α by ELISA. The format is in vivo. Particulars: for inhibition of LPS-induced TNF-α production (reference agents, previously shown): mice, dose not stated. The procedure:
FIGS. 5A-5E show representative dose response curves for the inhibition of LPS induced TNF-α production in vivo in a murine model of sub-lethal endotoxemia. In each experiment, groups of six mice received pre-treatment with the five compounds (FIG. 5A: (II); FIG. 5B: (III); FIG. 5C: (V); FIG. 5D: (I′) and FIG. 5E: (IV)) at various doses, via either the oral route (circles) or subcutaneous route (triangles). 30-60 mins later, animals were challenged with LPS via the intraperitoneal route, and serum was prepared from a terminal bleed 3 hours later. The level of TNF-α in the blood was measured by ELISA, and the degree of inhibition of LPS-induced TNF-α production (calculated as the concentration of TNF-α in mice exposed to LPS minus the concentration of TNF-α in mice which received a sham exposure to endotoxin-free PBS) is shown on the Y-axis of each graph as the mean of six animals, with whiskers representing SEMs. The concentration of TNF-α in mice receiving LPS but no BSCI treatment was typically 5,000 to 6,000 pg/ml on average (compared to <10 pg/ml in unchallenged mice). The ED50 was estimated by linear interpolation of the presented graphs. The X-axis of each graph represents the dose of each compound administered to each mouse in the group in units of mg (1E-07 to 1).
In this assay, mice are given a non-specific pro-inflammatory challenge using bacterial endotoxin (LPS), and the extent of the systemic inflammatory response (measured by serum levels of the central pro-inflammatory cytokine TNF-α, which is essentially absent from the blood under normal conditions, but is rapidly elevated in response to a wide range of inflammatory stimuli). We have selected this model even though it is not, itself, a particularly close model of any human inflammatory disease condition, but because TNF-α is known to be important in very many diseases (including rheumatoid arthritis, autoimmune disorders, Crohn's Disease, atherosclerosis, asthma and many more). Consequently, agents which suppress TNF-α production are already used clinically (e.g. Enbrel™ and other anti-TNF-α antibody products) to treat a wide range of such diseases.
Mice (in groups of 6) were pretreated with various doses of each compound, either by the subcutaneous route 30 mins prior to LPS challenge, or by the oral route (via gavage) 60 mins prior to LPS. The mice were then challenged with an intraperitoneal injection of 750 μg of bacterial LPS and sacrificed 3 hours later. Serum was prepared from a terminal bleed by cardiac puncture, and the concentration of TNF-α is determined by ELISA (R&D Systems). In each experiment, a group of 6 mice receive no LPS to act as a negative control, and a second group receive only LPS (with no candidate inhibitor). […]
For orientation: ELISA stands for enzyme-linked immunosorbent assay.

In series [7] the test system is chemokine-induced migration. Particulars: read-out: ED50 inhibition of chemokine-induced migration in vitro; cited from earlier work.
Series [8] concerns leukocytes in BAL fluid. The series can be described thus: Ovalbumin-induced lung inflammation model of asthma, cell counts in BAL fluid. Particulars: 30 mg/kg daily via the oral route. The format is in vivo, Brown Norway rats. From the text: Bars represent mean cell counts, shown on the Y axis in units of 10^6 cells, for groups of […] with whiskers representing SEM; * p<0.01 versus ‘sensitised’ using Student's unpaired t-test assuming equal variance, with two tails). The horizontal line represents the average number of leukocytes present in BAL fluid from the lungs of unchallenged rats. All rats in the remaining three groups received the same sensitisation and challenge regimen, but were either treated with vehicle only (‘Sensitised’), or with compound (I′) at 0.3 mg/kg bodyweight or with monteleukast (‘Singulair™’) at 30 mg/kg bodyweight, all administered daily by oral gavage.
Adult Brown Norway rats (200-300 g body weight; n=10 per group) were sensitised by a single intraperitoneal injection of 0.1 mg Ovalbumin on day 0. Each rat then received an intratracheal challenge with a solution of 1% ovalbumin (w/v) on day 8, and with 2% ovalbumin (w/v) on days 15, 18 and 21. The animals were then sacrificed 3 hours after the final challenge on day 21. […]
On sacrifice, total lung leukocyate recruitment was assessed by performing a broncheoalveolar lavage (BAL) using 4 lots of 3 ml sterile phosphate-buffered saline introduced through a tracheal cannula. For each animal, the BAL washes were combined, and the total cell population counted (using a haemocytometer). […]

[9] abbreviates: intravenous dosing 1 mg/kg, averaged across three rats, read-out: t1/2 (mins) dominant plasma half-life.

Structures are written as SMILES. Like-named read-outs stand apart in the source and are kept apart here.

With `CC1(C(=O)N[C@H]2CCCCNC2=O)CCCCC1` [(III), 3-(1′-methylcyclohexylcarbonylamino)-caprolactam], the “major metabolites / route of metabolism detected in urine” value in series [1] is on record as “cytochrome P450-mediated hydroxylation”. Also, in series [2] (averaged across three rats), the bioavailability (usually the share of a dose that reaches the circulation, judged against a reference dose that is usually intravenous) amounted to 5%; the clearance stood at 55 mL/min/kg; the Vd turned out to be 0.6 L/kg. In addition, the half-life in series [2] (setting [9]) stood at 11 min.

With `CC(C)(C)S(=O)(=O)N[C@H]1CCCCNC1=O` [(IV), 3-(1′,1′-dimethylethylsulfonylamino)-caprolactam], the “major metabolites / route of metabolism detected in urine” value in series [1] is on record as “the major metabolite could not be identified”. Moreover, the “Urine (ng/ml) unchanged parent compound” value in series [3] (24 hrs after a single oral dose 3 mg/kg in 1% CMC) was 1010 ng/mL. In addition, the “unchanged parent compound recovered in urine, % of the injected dose” value in series [3] (single oral dose 3 mg/kg in 1% CMC, 24 hrs) is “less than 10%”.

Consider `C=CCCCCCCCCC(=O)[C@@H]1CCCNC1=O` [(S)-3-(undec-10-enoyl)-tetrahydropyridin-2-one], for which the “time completely stable in serum” value in series [4] is reported as “at least 7 days”.

Take `O=C1NCCCC1NC(=O)C12CC3CC(CC(C3)C1)C2` (stereo not drawn) [(VII), 3-(adamanatane-1-carbonylamino)-tetrahydropyridin-2-one]: in series [2], the AUC(0-t) is 542 ng·h/mL. Further, in series [2] (averaged across three rats), the bioavailability amounted to 35%, the clearance was 31.1 mL/min/kg and the Vd came to 0.7 L/kg. Also, the half-life in series [2] (setting [9]) came out at 20 min. Besides, the half-life in series [2] (read-out: plasma half-life) was below 60 min.

On to `CCCCCCCCCCC(C)(C)C(=O)NC1CCCNC1=O` (stereo not drawn) [Compound (VI), 3-(2′,2′-dimethyldodecanoylamino)-tetrahydropyridin-2-one], for which the “solubility in iv dosing vehicle” value in series [5] is given as “completely insoluble”. Besides, in series [2], the AUC(0-t) is 183 ng·h/mL. Also, in series [2] (averaged across three rats), the bioavailability was 16%, the clearance is 40.3 mL/min/kg and the Vd came out at 1.95 L/kg. For the same compound, in series [2] (setting [9]), the half-life turned out to be 46 min. In addition, the half-life in series [2] (read-out: plasma half-life) is below 60 min.

As to `C=CCCCCCCCCC(=O)N[C@H]1CCC(=O)NC1=O` [NR58,4, (S)-3-(undec-10-enoyl)-aminoglutarimide], the “fold less potent in vivo than 3-(2′,2′-dimethylpropanoylamino)-tetrahydropyridin-2-one” value in series [6] (models of acute inflammation such as LPS-induced endotoxemia) is “at least 250 fold”. The EC50 in series [7] was 5 nM.

With `C[C@@H]1C[C@H]2[C@@H]3CCC4=CC(=O)C=C[C@]4(C)[C@@]3(F)[C@@H](O)C[C@]2(C)[C@@]1(O)C(=O)CO` [dexamethasone], the “inhibition of LPS-induced TNF-α production (reference agents, previously shown)” value in series [6] is recorded as “at least 90%”.

Regarding `CC(C)(O)c1ccccc1CC[C@@H](SCC1(CC(=O)O)CC1)c1cccc(/C=C/c2ccc3ccc(Cl)cc3n2)c1` [monteleukast], the “effect on the number of leukocytes in the BAL washes” value in series [8] was “significantly reduced the number of leukocytes in the BAL washes”.

Take `O=C1CCC(N2C(=O)c3ccccc3C2=O)C(=O)N1` (stereo not drawn) [thalidomide]: the “inhibition of LPS-induced TNF-α production (reference agents, previously shown)” value in series [6] is on record as “about 60%”.
